# Reference: article PMC11178805, “Ligand-based design of [^18F]OXD-2314 for PET imaging in non-Alzheimer’s disease tauopathies” (Nature Communications, 2024)
# Assay: Dynamic PET imaging with [^18F]OXD-2314 in baboons
# Format: in vivo
# Settings: for Cerebellum SUV / Cortex SUV / Striatum SUV / Whole Brain SUV: PET time-activity curve, Figure S18; for whole brain peak uptake: n = 1
# Description: Dynamic PET imaging was performed in a rhesus macaque (macaca mulatta) monkey following the injection of [^18F]OXD-2314 at baseline (104.9 MBq, n = 1) and was repeated in a second [^18F]OXD-2314 study (115.8 MBq, n = 1) where a displacing dose of unlabeled OXD-2314 (0.5 mg/kg) was administered 10 min after [^18F]OXD-2314 injection to verify the absence of specific binding in NHP brain. Venous blood samples were drawn to characterize the metabolic fate of [^18F]OXD-2314 in the macaque. Dynamic [^18F]OXD-2314 PET imaging was also performed in a male (106.6 MBq, n = 1) and a female (115.8 MBq, n = 1) baboon (papio anubis), and venous blood samples were drawn in both baboons to characterize potential effects of sex on radiometabolism. Bilateral regions of interest were defined on 5–8 contiguous axial image planes for the lateral temporal cerebral cortex, cerebellum, striatum, and whole brain, which were used to sample dynamic [^18F]OXD-2314 PET images to determine the time-varying radioactivity concentration expressed in SUV units. [^18F]OXD-2314 readily entered macaque brain (whole brain peak ~2.2 SUV at ~2 min) and distributed uniformly throughout cortical and subcortical grey matter regions (Fig. 5A). […] Radiometabolite analysis of macaque venous blood identified only one, polar radiometabolite, which increased from 37% at 10 min to 77% at 90 min post-injection and was not likely brain penetrant (Figs. S19, S20).
# The rate of uptake and clearance of [^18F]OXD-2314 in the brains of a male and a female baboon were compared (Fig. 6A). Initial whole brain uptake was rapid in both baboons, with peak uptake achieved in ~2 min with an SUV of ~2.8 in the male baboon and an SUV of ~1.9 in the female baboon. […] It is not known whether the higher initial brain uptake of [^18F]OXD-2314 observed in a male baboon is due to sex differences, normal physiologic variability, or the additional variability introduced by the effects of anesthesia. No evidence of elevated uptake or retention in the baboon striatum following [^18F]OXD-2314 injection was observed (Fig. S16), a region where high levels of PSP and CBD pathology are expected. Therefore, the normal brain retention patterns of [^18F]OXD-2314 are unlikely to confound the detection of specific signal from PSP and CBD pathology in human subjects.
# NHP imaging studies in a male (13 kg) macaca mulata monkey and male (25.7 kg) and female (14.2 kg) papio anubis baboons were carried out in accordance with the guidelines set forth by the Institutional Animal Care and Use Committee at the University of Pittsburgh. Additional details regarding the maintenance of an active environmental enrichment program for the housed NHPs are described in Supplemental Information. Dynamic [^18F]OXD-2314 PET imaging of the brains of the isoflurane anesthetized NHPs was performed using a Siemens Biograph mCT Flow 64-4 R PET/CT scanner ([…], maximum intrinsic spatial resolution of 4.3 mm FWHM[53]. Following a low-dose CT scan for attenuation correction of PET emission data, [^18F]OXD-2314 was injected intravenously and emission data were acquired in list-mode for a period of 90 min. Emission data were binned into a dynamic series of 32 frames (20 sec-10 min) and reconstructed using filtered back projection with Fourier rebinning (FORE + FBP) with standard corrections applied that included attenuation, scatter, electronics dead-time, and physical decay.
smiles,measurement,setting,value
CO[C@H]1CCCN(c2ccc(-c3cc4cc(O)ccc4[nH]3)c([18F])n2)C1 [[^18F]OXD-2314],Cerebellum SUV,Time 2.75 min,3.523 SUV
same,Cortex SUV,Time 2.75 min,3.036 SUV
same,Striatum SUV,Time 2.75 min,3.616 SUV
same,Whole Brain SUV,Time 2.75 min,2.828 SUV
same,Cerebellum SUV,Time 3.25 min,3.2566 SUV
same,Cortex SUV,Time 3.25 min,2.891 SUV
same,Striatum SUV,Time 3.25 min,3.337 SUV
same,Whole Brain SUV,Time 3.25 min,2.7269 SUV
same,Cerebellum SUV,Time 3.75 min,3.5333 SUV
same,Cortex SUV,Time 3.75 min,2.848 SUV
same,Striatum SUV,Time 3.75 min,3.315 SUV
same,Whole Brain SUV,Time 3.75 min,2.707 SUV
same,Cerebellum SUV,Time 4.5 min,3.317 SUV
same,Cortex SUV,Time 4.5 min,2.817 SUV
same,Striatum SUV,Time 4.5 min,3.072 SUV
same,Whole Brain SUV,Time 4.5 min,2.623 SUV
same,Cerebellum SUV,Time 5.5 min,2.973 SUV
same,Cortex SUV,Time 5.5 min,2.612 SUV
same,Striatum SUV,Time 5.5 min,3.02 SUV
same,Whole Brain SUV,Time 5.5 min,2.516 SUV
same,Cerebellum SUV,Time 6.5 min,2.884 SUV
same,Cortex SUV,Time 6.5 min,2.534 SUV
same,Striatum SUV,Time 6.5 min,2.784 SUV
same,Whole Brain SUV,Time 6.5 min,2.429 SUV
same,Cerebellum SUV,Time 8 min,2.424 SUV
same,Cortex SUV,Time 8 min,2.368 SUV
same,Striatum SUV,Time 8 min,2.423 SUV
same,Whole Brain SUV,Time 8 min,2.257 SUV
same,Cerebellum SUV,Time 10 min,2.417 SUV
same,Cortex SUV,Time 10 min,2.197 SUV
same,Striatum SUV,Time 10 min,2.581 SUV
same,Whole Brain SUV,Time 10 min,2.094 SUV
same,Cerebellum SUV,Time 12 min,2.068 SUV
same,Cortex SUV,Time 12 min,2.057 SUV
same,Striatum SUV,Time 12 min,2.198 SUV
same,Whole Brain SUV,Time 12 min,1.998 SUV
same,Cerebellum SUV,Time 14 min,2.062 SUV
same,Cortex SUV,Time 14 min,1.889 SUV
same,Striatum SUV,Time 14 min,1.943 SUV
same,Whole Brain SUV,Time 14 min,1.8928 SUV
same,Cerebellum SUV,Time 17.5 min,1.827 SUV
same,Cortex SUV,Time 17.5 min,1.768 SUV
same,Striatum SUV,Time 17.5 min,1.893 SUV
same,Whole Brain SUV,Time 17.5 min,1.748 SUV
same,Cerebellum SUV,Time 22.5 min,1.519 SUV
same,Cortex SUV,Time 22.5 min,1.5637 SUV
same,Striatum SUV,Time 22.5 min,1.618 SUV
same,Whole Brain SUV,Time 22.5 min,1.572 SUV
same,Cerebellum SUV,Time 27.5 min,1.345 SUV
same,Cortex SUV,Time 27.5 min,1.403 SUV
same,Striatum SUV,Time 27.5 min,1.574 SUV
same,Whole Brain SUV,Time 27.5 min,1.421 SUV
same,Cerebellum SUV,Time 32.5 min,1.261 SUV
same,Cortex SUV,Time 32.5 min,1.245 SUV
same,Striatum SUV,Time 32.5 min,1.235 SUV
same,Whole Brain SUV,Time 32.5 min,1.295 SUV
same,Cerebellum SUV,Time 37.5 min,1.135 SUV
same,Cortex SUV,Time 37.5 min,1.17 SUV
same,Striatum SUV,Time 37.5 min,1.248 SUV
same,Whole Brain SUV,Time 37.5 min,1.205 SUV
same,Cerebellum SUV,Time 42.5 min,1.059 SUV
same,Cortex SUV,Time 42.5 min,1.067 SUV
same,Striatum SUV,Time 42.5 min,1.112 SUV
same,Whole Brain SUV,Time 42.5 min,1.107 SUV
same,Cerebellum SUV,Time 47.5 min,1.003 SUV
same,Cortex SUV,Time 47.5 min,0.9766 SUV
same,Striatum SUV,Time 47.5 min,0.9755 SUV
same,Whole Brain SUV,Time 47.5 min,1.028 SUV
same,Cerebellum SUV,Time 52.5 min,0.8116 SUV
same,Cortex SUV,Time 52.5 min,0.9384 SUV
same,Striatum SUV,Time 52.5 min,0.9527 SUV
same,Whole Brain SUV,Time 52.5 min,0.9734 SUV
same,Cerebellum SUV,Time 57.5 min,0.7605 SUV
same,Cortex SUV,Time 57.5 min,0.8664 SUV
same,Striatum SUV,Time 57.5 min,0.8933 SUV
same,Whole Brain SUV,Time 57.5 min,0.9139 SUV
same,Cerebellum SUV,Time 62.5 min,0.7211 SUV
same,Cortex SUV,Time 62.5 min,0.8233 SUV
same,Striatum SUV,Time 62.5 min,0.8081 SUV
same,Whole Brain SUV,Time 62.5 min,0.8807 SUV
same,Cerebellum SUV,Time 67.5 min,0.724 SUV
same,Cortex SUV,Time 67.5 min,0.803 SUV
same,Striatum SUV,Time 67.5 min,0.7461 SUV
same,Whole Brain SUV,Time 67.5 min,0.8223 SUV
same,Cerebellum SUV,Time 72.5 min,0.6837 SUV
same,Cortex SUV,Time 72.5 min,0.7452 SUV
same,Striatum SUV,Time 72.5 min,0.6547 SUV
same,Whole Brain SUV,Time 72.5 min,0.7875 SUV
same,Cerebellum SUV,Time 77.5 min,0.6351 SUV
same,Cortex SUV,Time 77.5 min,0.7071 SUV
same,Striatum SUV,Time 77.5 min,0.5968 SUV
same,Whole Brain SUV,Time 77.5 min,0.7547 SUV
same,Cerebellum SUV,Time 82.5 min,0.6873 SUV
same,Cortex SUV,Time 82.5 min,0.6833 SUV
same,Striatum SUV,Time 82.5 min,0.7378 SUV
same,Whole Brain SUV,Time 82.5 min,0.7187 SUV
same,Cerebellum SUV,Time 87.5 min,0.5841 SUV
same,Cortex SUV,Time 87.5 min,0.6805 SUV
same,Striatum SUV,Time 87.5 min,0.6765 SUV
same,Whole Brain SUV,Time 87.5 min,0.6934 SUV
same,time to peak whole brain uptake,both baboons,~ 2 min
same,2:90 min SUV ratio,female baboon,~ 3.6
same,whole brain peak uptake,female baboon,~ 1.9 SUV
same,2:90 min SUV ratio,male baboon,~ 3.7
same,whole brain peak uptake,male baboon,~ 2.8 SUV
